The values below come from ChEMBL document CHEMBL5365549, “Neurosteroids and Postpartum Depression: The Mechanism, Efficacy, and Approval of Brexanolone and Zurzuvae” (ACS Med Chem Lett, 2023).

In general, IC50 refers to the concentration at which inhibition is half-maximal. As a reminder, the AUC(0-inf) is total exposure, with the tail of the curve extrapolated. A low value points to low exposure. For orientation: Cmax means the peak of the concentration-time curve. Broadly, the AUC(0-t) is the area under the concentration-time curve up to a stated or last time point. A low value points to low exposure.

A short description of data set [1]: Inhibition of rat brain cortical membrane GABA alpha receptor by TBPS binding assay. Type of data set: cell membranes, Cortex.
The nature of data set [2]: AUC (0 to infinity) in human at 30 mg administered as formulated fed (high-fat meal) capsules. Also noted: dose 30 mg. Type of data set: ADME. The note with it: in vivo, po.
Data set [3] can be described thus: Cmax in human at 30 mg administered as formulated fed (high-fat meal) capsules. Type of data set: ADME. Also on record: dose 30 mg. The note with it: in vivo, po.
Data set [4] can be described thus: AUC (0 to t) in human at 30 mg administered as formulated fed (high-fat meal) capsules. In kind it is ADME. Also on record: dose 30 mg. The following applies: in vivo, po.
Data set [5] can be described thus: AUC (0 to infinity) in human at 30 mg administered as formulated fasted capsules. Type of data set: ADME. Also on record: dose 30 mg. The following applies: in vivo, po.
Data set [6] can be described thus: AUC (0 to t) in human at 30 mg administered as formulated fasted capsules. Type of data set: ADME. Also on record: dose 30 mg. The following applies: in vivo, po.
The nature of data set [7]: Cmax in human at 30 mg administered as formulated fasted capsules. In kind it is ADME. Also noted: dose 30 mg. The following applies: in vivo, po.

`CC(=O)[C@H]1CC[C@H]2[C@@H]3CC[C@H]4C[C@](C)(O)CC[C@@H]4[C@H]3CC[C@]12C` had an IC50 in data set [1] of 0.093 µM.
Take `COC[C@@]1(O)CC[C@H]2[C@H](CC[C@@H]3[C@@H]2CC[C@]2(C)[C@@H](C(C)=O)CC[C@@H]32)C1`: the IC50 in data set [1] turned out to be 0.041 µM. This IC50 is about 2.3-fold lower than that of the compound before.
In the case of `C[C@@]1(O)CC[C@H]2[C@H](CC[C@@H]3[C@@H]2CC[C@]2(C)[C@@H](C(=O)CO)CC[C@@H]32)C1`, the AUC(0-inf) in data set [2] was found to be 1010 ng·h/mL; in data set [5] it was 640 ng·h/mL. Moreover, the Cmax in data set [3] turned out to be 63.1 ng/mL; in data set [7] it was 21.8 ng/mL. In data set [1], this compound returned a 50% inhibitory concentration (IC50) of 0.086 µM. The AUC(0-t) in data set [4] turned out to be 838 ng·h/mL; in data set [6] it was 530 ng·h/mL.
Regarding `COC[C@@]1(O)CC[C@H]2[C@@H](CC[C@@H]3[C@@H]2CC[C@]2(C)[C@@H](C(=O)CO)CC[C@@H]32)C1`, the IC50 in data set [1] was 0.094 µM.
`COC[C@@]1(O)CC[C@H]2[C@H](CC[C@@H]3[C@@H]2CC[C@]2(C)[C@@H](C(=O)CO)CC[C@@H]32)C1` gave an IC50 in data set [1] of 0.17 µM.
As to `CC(=O)[C@H]1CC[C@H]2[C@@H]3CC[C@@H]4C[C@@](O)(C(F)F)CC[C@@H]4[C@H]3CC[C@]12C`, the IC50 in data set [1] worked out at 0.033 µM.
